From PMC11354514, “Synthesis and Anti-Cancer Activity of the Novel Selective Glucocorticoid Receptor Agonists of the Phenylethanolamine Series” (International Journal of Molecular Sciences, 2024) come the findings set out here.

The test has as its target T1, glucocorticoid receptor (GR) (Homo sapiens, UniProt P04150).
T1 construct: gene NR3C1
T1 sequence (P04150 1-777): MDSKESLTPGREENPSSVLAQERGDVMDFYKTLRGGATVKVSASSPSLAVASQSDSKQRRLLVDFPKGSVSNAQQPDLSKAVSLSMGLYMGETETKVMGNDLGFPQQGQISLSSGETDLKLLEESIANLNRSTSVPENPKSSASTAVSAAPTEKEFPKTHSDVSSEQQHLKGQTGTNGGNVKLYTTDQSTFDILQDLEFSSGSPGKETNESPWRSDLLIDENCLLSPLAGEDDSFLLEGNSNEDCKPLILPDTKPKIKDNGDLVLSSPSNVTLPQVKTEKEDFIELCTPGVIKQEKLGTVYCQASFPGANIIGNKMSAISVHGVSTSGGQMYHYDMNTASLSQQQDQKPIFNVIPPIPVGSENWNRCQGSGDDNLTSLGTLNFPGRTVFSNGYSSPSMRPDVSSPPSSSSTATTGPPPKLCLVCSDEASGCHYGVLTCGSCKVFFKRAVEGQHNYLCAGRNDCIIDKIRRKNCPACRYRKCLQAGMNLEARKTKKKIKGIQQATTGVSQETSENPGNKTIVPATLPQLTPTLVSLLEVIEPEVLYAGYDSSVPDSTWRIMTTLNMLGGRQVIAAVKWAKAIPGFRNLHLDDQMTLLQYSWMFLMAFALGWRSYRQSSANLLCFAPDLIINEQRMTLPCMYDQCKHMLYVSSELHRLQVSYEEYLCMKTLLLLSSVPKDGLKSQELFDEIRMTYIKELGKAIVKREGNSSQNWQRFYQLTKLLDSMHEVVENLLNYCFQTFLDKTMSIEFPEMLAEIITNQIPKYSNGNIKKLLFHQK
Briefly: [3H]Dex competition radioligand binding in whole K562 cells (endogenous GR). It counts as cell-based.

Like-named read-outs stand apart in the source and are kept apart here.

The term IC50 denotes the concentration at which inhibition is half-maximal.

`Oc1ccc(C(O)CN2CCCCC2)cc1` (centres unmarked) [CpdA-03, 4-(1-hydroxy-2-(piperidin-1-yl)ethyl)phenol]: the IC50 (read-out: IC50) worked out at 150 nM. `CNCC(Cl)c1ccc(OC(C)=O)cc1` (centres unmarked) [CpdA, 2-(4-acetoxyphenyl)-2-chloro-N-methylethylammonium-chloride] came in with an IC50 of 2500 nM.
